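Compound exposure: 48 hours, 5 concentrations, 96-well plates. The concentration for 50% growth inhibition is given as GI50. TGI marks complete inhibition of growth.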
Legend:
Experiment in all cases: growth of human tumour cells (NCI), 48 h
HCT-15 colon = system: HCT-15 colon
RXF 393 renal = system: RXF 393 renal
UACC-62 melanoma = system: UACC-62 melanoma
HCT-116 colon = system: HCT-116 colon
786-0 renal = system: 786-0 renal
SR leukemia = system: SR leukemia
LOX IMVI melanoma = system: LOX IMVI melanoma
A549 NSCLC = system: A549 NSCLC
OVCAR-5 ovarian = system: OVCAR-5 ovarian
IGROV1 ovarian = system: IGROV1 ovarian
NCI-H522 lung = system: NCI-H522 lung
SW-620 colon = system: SW-620 colon
SK-MEL-2 melanoma = system: SK-MEL-2 melanoma
NCI-H226 lung = system: NCI-H226 lung
K-562 leukemia = system: K-562 leukemia
OVCAR-3 ovarian = system: OVCAR-3 ovarian
ACHN renal = system: ACHN renal
MDA-MB-435 = system: MDA-MB-435
COLO 205 colon = system: COLO 205 colon
KM12 colon = system: KM12 colon
PC-3 prostate = system: PC-3 prostate
MDA-MB-231 breast = system: MDA-MB-231 breast
MCF7 breast = system: MCF7 breast
SF-539 CNS = system: SF-539 CNS
M14 melanoma = system: M14 melanoma
CCRF-CEM leukemia = system: CCRF-CEM leukemia
HT29 colon = system: HT29 colon
BT-549 breast = system: BT-549 breast
SNB-75 CNS = system: SNB-75 CNS
TK-10 renal = system: TK-10 renal
HCC-2998 colon = system: HCC-2998 colon
MALME-3M melanoma = system: MALME-3M melanoma
HL-60(TB) leukemia = system: HL-60(TB) leukemia
CAKI-1 renal = system: CAKI-1 renal
EKVX NSCLC = system: EKVX NSCLC
UACC-257 melanoma = system: UACC-257 melanoma
NCI/ADR-RES ovarian = system: NCI/ADR-RES ovarian
SF-268 CNS = system: SF-268 CNS
SNB-19 CNS = system: SNB-19 CNS
MOLT-4 leukemia = system: MOLT-4 leukemia
NCI-H460 lung = system: NCI-H460 lung
HS 578T breast = system: HS 578T breast
SF-295 CNS = system: SF-295 CNS
SK-OV-3 ovarian = system: SK-OV-3 ovarian
OVCAR-8 ovarian = system: OVCAR-8 ovarian
SN12C renal = system: SN12C renal
SK-MEL-5 melanoma = system: SK-MEL-5 melanoma
UO-31 renal = system: UO-31 renal
A498 renal = system: A498 renal
NCI-H23 lung = system: NCI-H23 lung
SK-MEL-28 melanoma = system: SK-MEL-28 melanoma
U251 CNS = system: U251 CNS
HOP-62 NSCLC = system: HOP-62 NSCLC
T-47D breast = system: T-47D breast
DU-145 prostate = system: DU-145 prostate
OVCAR-4 ovarian = system: OVCAR-4 ovarian

Compound: ClCCn1cnc2c(SCc3ccccc3Cl)ncnc21
- GI50 (HCT-15 colon): 0.0383 µM
- TGI (HCT-15 colon): > 100 µM
- GI50 (RXF 393 renal): 1.35 µM
- TGI (RXF 393 renal): 26.4 µM
- GI50 (UACC-62 melanoma): 0.529 µM
- TGI (UACC-62 melanoma): > 48.1 µM
- GI50 (HCT-116 colon): 0.0679 µM
- TGI (HCT-116 colon): 21 µM
- GI50 (786-0 renal): 0.671 µM
- TGI (786-0 renal): 20.4 µM
- GI50 (SR leukemia): 0.0609 µM
- TGI (SR leukemia): 13.1 µM
- GI50 (LOX IMVI melanoma): 0.0756 µM
- TGI (LOX IMVI melanoma): 11.9 µM
- GI50 (A549 NSCLC): 0.278 µM
- TGI (A549 NSCLC): > 39.6 µM
- GI50 (OVCAR-5 ovarian): 37.8 µM
- TGI (OVCAR-5 ovarian): > 100 µM
- GI50 (IGROV1 ovarian): 0.51 µM
- TGI (IGROV1 ovarian): > 41.6 µM
- GI50 (NCI-H522 lung): 2.64 µM
- TGI (NCI-H522 lung): > 71.1 µM
- GI50 (SW-620 colon): 0.511 µM
- TGI (SW-620 colon): > 100 µM
- GI50 (SK-MEL-2 melanoma): 12.7 µM
- TGI (SK-MEL-2 melanoma): 54.4 µM
- GI50 (NCI-H226 lung): 3.52 µM
- TGI (NCI-H226 lung): 59.9 µM
- GI50 (K-562 leukemia): 0.0755 µM
- TGI (K-562 leukemia): > 59.1 µM
- GI50 (OVCAR-3 ovarian): 9.31 µM
- TGI (OVCAR-3 ovarian): 29.8 µM
- GI50 (ACHN renal): 0.51 µM
- TGI (ACHN renal): > 100 µM
- GI50 (MDA-MB-435): 0.779 µM
- TGI (MDA-MB-435): 50.7 µM
- GI50 (COLO 205 colon): 2.01 µM
- TGI (COLO 205 colon): > 100 µM
- GI50 (KM12 colon): 0.789 µM
- TGI (KM12 colon): 46.6 µM
- GI50 (PC-3 prostate): 0.717 µM
- TGI (PC-3 prostate): 46.6 µM
- GI50 (MDA-MB-231 breast): 5.77 µM
- TGI (MDA-MB-231 breast): > 100 µM
- GI50 (MCF7 breast): 0.446 µM
- TGI (MCF7 breast): > 100 µM
- GI50 (SF-539 CNS): 0.267 µM
- TGI (SF-539 CNS): 68.8 µM
- GI50 (M14 melanoma): 7.5 µM
- TGI (M14 melanoma): > 76.6 µM
- GI50 (CCRF-CEM leukemia): 2 µM
- TGI (CCRF-CEM leukemia): 36.5 µM
- GI50 (HT29 colon): 0.191 µM
- TGI (HT29 colon): > 100 µM
- GI50 (BT-549 breast): 8.79 µM
- TGI (BT-549 breast): 53.6 µM
- GI50 (SNB-75 CNS): 6.69 µM
- TGI (SNB-75 CNS): > 63.2 µM
- GI50 (TK-10 renal): 5.44 µM
- TGI (TK-10 renal): > 83.1 µM
- GI50 (HCC-2998 colon): 1.75 µM
- GI50 (MALME-3M melanoma): 14.2 µM
- TGI (MALME-3M melanoma): 45.4 µM
- GI50 (HL-60(TB) leukemia): 0.416 µM
- TGI (HL-60(TB) leukemia): 8.94 µM
- GI50 (CAKI-1 renal): 0.272 µM
- TGI (CAKI-1 renal): 24.7 µM
- GI50 (EKVX NSCLC): 13.8 µM
- TGI (EKVX NSCLC): > 78 µM
- GI50 (UACC-257 melanoma): 2.64 µM
- GI50 (NCI/ADR-RES ovarian): 1.2 µM
- TGI (NCI/ADR-RES ovarian): > 52.5 µM
- GI50 (SF-268 CNS): 4.87 µM
- TGI (SF-268 CNS): > 84.7 µM
- GI50 (SNB-19 CNS): 1.98 µM
- TGI (SNB-19 CNS): > 100 µM
- GI50 (MOLT-4 leukemia): 0.176 µM
- TGI (MOLT-4 leukemia): 9.4 µM
- GI50 (NCI-H460 lung): 0.0533 µM
- TGI (NCI-H460 lung): 16.4 µM
- GI50 (HS 578T breast): 19.4 µM
- TGI (HS 578T breast): 89 µM
- GI50 (SF-295 CNS): 0.184 µM
- TGI (SF-295 CNS): 20.2 µM
- GI50 (SK-OV-3 ovarian): 9.72 µM
- TGI (SK-OV-3 ovarian): > 100 µM
- GI50 (OVCAR-8 ovarian): 0.576 µM
- TGI (OVCAR-8 ovarian): > 90.5 µM
- GI50 (SN12C renal): 1.26 µM
- TGI (SN12C renal): > 100 µM
- GI50 (SK-MEL-5 melanoma): 0.272 µM
- TGI (SK-MEL-5 melanoma): 43.3 µM
- GI50 (UO-31 renal): 0.883 µM
- TGI (UO-31 renal): 41.8 µM
- GI50 (A498 renal): 24.5 µM
- TGI (A498 renal): > 93 µM
- GI50 (NCI-H23 lung): 9.69 µM
- TGI (NCI-H23 lung): > 73.7 µM
- GI50 (SK-MEL-28 melanoma): 5.3 µM
- TGI (SK-MEL-28 melanoma): > 83.8 µM
- GI50 (U251 CNS): 0.0925 µM
- TGI (U251 CNS): > 89.8 µM
- GI50 (HOP-62 NSCLC): 2.56 µM
- TGI (HOP-62 NSCLC): > 100 µM
- GI50 (T-47D breast): 13.7 µM
- TGI (T-47D breast): 79.5 µM
- GI50 (DU-145 prostate): 0.754 µM
- TGI (DU-145 prostate): 25 µM
- GI50 (OVCAR-4 ovarian): 14.4 µM
- TGI (OVCAR-4 ovarian): > 100 µM
